The source of these data is patent US8304417B2, “Crystalline forms of 4-(6-chloro-2,3-methylenedioxyanilino)-7-[2-(4-methylpiperazin-1-yl)ethoxy]-5-tetrahydropyran-4-yloxyquinazoline” (AstraZeneca AB, priority 2004, dated 2012).

The nature of data set [1]: Solid-state form stability (storage, presence or absence of water). In kind it is physicochemical.
A short description of data set [2]: Hygroscopicity of the crystalline form (exposure to water vapour). The format is physicochemical. To be noted: solid form, exposure to water vapour during storage.

“Also recorded” adds a separate entry of the source.

As to `CN1CCN(CCOc2cc(OC3CCOCC3)c3c(Nc4c(Cl)ccc5c4OCO5)ncnc3c2)CC1.O.O.O` [AZD0530 trihydrate, 4-(6-chloro-2,3-methylenedioxyanilino)-7-[2-(4-methylpiperazin-1-yl)ethoxy]-5-tetrahydropyran-4-yloxyquinazoline trihydrate], the “stability of the physical form” value in data set [1] is “stable in the presence of water”.
In the case of `CN1CCN(CCOc2cc(OC3CCOCC3)c3c(Nc4c(Cl)ccc5c4OCO5)ncnc3c2)CC1.O=C(O)/C=C/C(=O)O.O=C(O)/C=C/C(=O)O` [AZD0530 difumarate, 4-(6-chloro-2,3-methylenedioxyanilino)-7-[2-(4-methylpiperazin-1-yl)ethoxy]-5-tetrahydropyran-4-yloxyquinazoline difumarate salt], in data set [2], the hygroscopicity entry is “substantially non-hygroscopic”. The “stability of the physical form” value in data set [1] is “does not readily change form during storage if exposed to water vapour”.
Turning to `CN1CCN(CCOc2cc(OC3CCOCC3)c3c(Nc4c(Cl)ccc5c4OCO5)ncnc3c2)CC1` [anhydrous AZD0530, 4-(6-chloro-2,3-methylenedioxyanilino)-7-[2-(4-methylpiperazin-1-yl)ethoxy]-5-tetrahydropyran-4-yloxyquinazoline], the “stability of the physical form” value in data set [1] is on record as “very stable in the absence of water; also recorded: prone to convert to AZD0530 trihydrate during storage if substantially anhydrous storage conditions are not maintained”.
On the same count and under the same terms, the result for “4-(6-chloro-2,3-methylenedioxyanilino)-7-[2-(4-methylpiperazin-1-yl)ethoxy]-5-tetrahydropyran-4-yloxyquinazoline sesquifumarate salt [AZD0530 sesquifumarate tetrahydrate]” reads “of reasonable stability”.
